Reference: patent US20250302797A1, “COMBINATION THERAPIES FOR TREATING INFLAMMATION” (Flagship Pioneering Innovations VI, LLC, priority 2022, published 2025)

Columns and labels:
[1] = tested on: oxazolone-induced ear swelling in mice; assay: Oxazolone-induced dermatitis mouse model: ear thickness; assay type: in vivo, BALB/c mice; conditions: topical 20 μL, 5 mg/mL, 30 minutes before and 15 minutes after oxazolone challenge; measured at 24 hours
Description: (§1) Male BALB/c mice weighing 22±2 g are used and randomly divided into groups of 5 each. Sham treatment group receive no oxazolone sensitization and challenge, but PBS, plus treated with vehicle (Acetone:ethanol 1:1). All other groups' animals were sensitized by applying oxazolone (100 μL, 1.5% in acetone) onto their preshaved abdominal surface on Day 0, and challenged by oxazolone (1%, 20 μL/ear) seven (7) days later. 20 μL of either Vehicle, Dexamethasone (5 mg/mL; anti-inflammatory positive control), or a combination of Luteolin (1.6-9.6 mg/mL)+Gamma-mangostin (1.2-7.2 mg/mL) were applied topically to the anterior and posterior surfaces of the right ear 30 minutes before and 15 minutes after oxazolone challenge. Left ear was unstimulated and treated as a control.
(§2) The right and left ear thickness of each mouse were measured at 24 hours after oxazolone challenge as an index of inflammation. The right ear was harvested and snap frozen for cytokine gene expression analysis.

[2] = tested on: cytokine gene expression in ears of mice stimulated with oxazolone; assay: Oxazolone-induced dermatitis mouse model: cytokine gene expression in ear; assay type: in vivo, BALB/c mice; conditions: right ear; topical; Dexamethasone 5 mg/mL or Luteolin (1.6-9.6 mg/mL)+Gamma-mangostin (1.2-7.2 mg/mL)
Description: as §1, §2

LPS-injected mice = assay: LPS-induced systemic inflammation mouse model: blood cytokine levels; assay type: in vivo, C57Bl/6 mice; conditions: intraperitoneal 1 hour prior to LPS (1 mg/kg); Dexamethasone 5 mg/kg or Luteolin+Gamma-mangostin 4+4.5 mg/kg; serum or plasma
Description: C57Bl/6 male mice, 6-8 weeks old, weighing 22±2 g were randomly divided into groups of 5-6 each. Sham animals were injected intra-peritoneally with PBS only. All other groups were intraperitoneally injected with either Vehicle control, Dexamethasone (5 mg/kg), or a combination of Luteolin+Gamma-mangostin (4+4.5 mg/kg) at 1 hour prior to injection with LPS (1 mg/kg), an agent known to trigger systemic inflammation. After LPS injection, blood was collected at different time points: 30 min, 2 h, 4 h and 24 h and the processed serum or plasma were used for further cytokine analysis through LUMINEX or Ella Automated Immunoassay System (Protein Simple).

[3] = tested on: Differentiated THP-1 macrophages stimulated with IFN-gamma and LPS; assay: THP1 cytokine secretion assay; assay type: cell-based, Human; conditions: for greatest IL6 inhibition to: IL6 secretion; for greatest TNFa inhibition to: TNFa secretion
Description: Human THP-1 cells were plated and differentiated into macrophages through treatment with phorbol 12-myristate 13-acetate and beta-mercaptoethanol for 72 hours. Differentiated THP-1 macrophages were then stimulated with IFN-gamma (20 ng/mL) and LPS (50 ng/mL) to induce an inflammatory response and co-treated with gamma-mangostin and/or luteolin at 0, 0.2, 0.5, 2, 5, 10 uM. Various secreted cytokines were measured from the media using the Ella Automated Immunoassay System (ProteinSimple).

[4] = Gamma-mangostin alone at 10 uM (0-10 uM tested)
[5] = Luteolin alone at 0.5 uM (0-10 uM tested)

C[C@@H]1C[C@H]2[C@@H]3CCC4=CC(=O)C=C[C@]4(C)[C@@]3(F)[C@@H](O)C[C@]2(C)[C@@]1(O)C(=O)CO [Dexamethasone]
reduction in ear thickness compared to the Vehicle-treated ears [1]: 29%
Ifng gene expression (% of Vehicle control) [2]: 445%
Il1b gene expression (% of Vehicle control) [2]: 5%
Il4 gene expression (% of Vehicle control) [2]: 24%
Il6 gene expression (% of Vehicle control) [2]: 33%
Il11 gene expression (% of Vehicle control) [2]: 55%
Il13 gene expression (% of Vehicle control) [2]: 20%
Tnfa gene expression (% of Vehicle control) [2]: 14%
CXCL1 level, % of the Vehicle (LPS-injected mice): 57%
MIP1-beta level, % of the Vehicle (LPS-injected mice): 29%
TNFa level, % of the Vehicle (LPS-injected mice): 12%

CC(C)=CCc1c(O)cc2oc3cc(O)c(O)c(CC=C(C)C)c3c(=O)c2c1O [Gamma-mangostin, Gamma-Mangostin]
greatest IL6 inhibition to [3, 4]: 53%
greatest TNFa inhibition to [3, 4]: 45%

O=c1cc(-c2ccc(O)c(O)c2)oc2cc(O)cc(O)c12 [Luteolin]
greatest IL6 inhibition to [3, 5]: 53.7%
greatest TNFa inhibition to [3, 5]: 45.6%
